How the values were obtained:
[1] = Selectivity ratio of Ki for delta opioid receptor to kappa opioid receptor
[2] = target: Kappa-type opioid receptor (Homo sapiens, UniProt P41145); experiment: Displacement of [125]OXY from kappa opioid receptor
Mu-type opioid receptor = Mu-type opioid receptor (Homo sapiens, UniProt P35372); experiment: Displacement of [125]OXY from mu opioid receptor
[3] = Selectivity ratio of Ki for mu opioid receptor to kappa opioid receptor
[4] = target: Delta-type opioid receptor (Homo sapiens, UniProt P41143); experiment: Displacement of [125]OXY from delta opioid receptor
Delta-type opioid receptor, sequence (P41143 whole entry): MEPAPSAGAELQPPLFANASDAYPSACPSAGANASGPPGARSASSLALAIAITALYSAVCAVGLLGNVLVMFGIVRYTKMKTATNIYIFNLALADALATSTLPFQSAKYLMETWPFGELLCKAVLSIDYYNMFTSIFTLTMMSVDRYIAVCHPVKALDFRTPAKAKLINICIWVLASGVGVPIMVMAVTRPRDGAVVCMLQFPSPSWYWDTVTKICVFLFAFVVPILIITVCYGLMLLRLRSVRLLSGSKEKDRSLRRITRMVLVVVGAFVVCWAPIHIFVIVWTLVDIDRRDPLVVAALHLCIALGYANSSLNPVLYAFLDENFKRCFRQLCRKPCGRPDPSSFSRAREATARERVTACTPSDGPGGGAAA

Mu-type opioid receptor, sequence (P35372 whole entry): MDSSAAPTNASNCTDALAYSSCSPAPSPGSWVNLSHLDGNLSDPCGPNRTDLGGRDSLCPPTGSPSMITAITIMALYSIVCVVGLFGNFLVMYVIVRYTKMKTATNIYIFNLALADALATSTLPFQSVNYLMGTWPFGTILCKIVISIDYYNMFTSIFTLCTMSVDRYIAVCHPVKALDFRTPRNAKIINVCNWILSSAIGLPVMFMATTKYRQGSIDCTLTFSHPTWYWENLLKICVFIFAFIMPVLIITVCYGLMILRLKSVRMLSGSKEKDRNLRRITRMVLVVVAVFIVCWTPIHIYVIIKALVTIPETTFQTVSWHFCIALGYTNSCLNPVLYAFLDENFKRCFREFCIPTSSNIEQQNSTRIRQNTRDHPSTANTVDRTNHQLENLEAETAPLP
Kappa-type opioid receptor, sequence (P41145 whole entry): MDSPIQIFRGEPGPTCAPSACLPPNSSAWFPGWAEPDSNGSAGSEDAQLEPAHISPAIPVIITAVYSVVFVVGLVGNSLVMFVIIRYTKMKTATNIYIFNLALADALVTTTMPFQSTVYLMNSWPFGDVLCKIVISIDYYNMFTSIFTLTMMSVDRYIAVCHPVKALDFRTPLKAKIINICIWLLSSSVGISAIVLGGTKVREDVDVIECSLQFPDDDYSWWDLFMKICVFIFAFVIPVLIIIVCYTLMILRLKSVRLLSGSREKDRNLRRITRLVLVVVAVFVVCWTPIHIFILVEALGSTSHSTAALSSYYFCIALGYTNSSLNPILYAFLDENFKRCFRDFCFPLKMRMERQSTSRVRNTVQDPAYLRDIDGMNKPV

With COC(=O)[C@@H]1C[C@H](OC(=O)c2ccccc2Br)C(=O)[C@H]2[C@@]1(C)CCC1C(=O)O[C@H](c3ccoc3)C[C@@]12C (single isomer, unassigned) the Ratio Ki [1] was > 100, the Ki [2] was 90 nM and the Ki (Mu-type opioid receptor) was 110 nM. For the same molecule, the Ratio Ki [3] was 1.2 and the Ki [4] was > 10000 nM.
In the case of CCC(=O)O[C@H]1C[C@@H](C(=O)OC)[C@]2(C)CC[C@H]3C(=O)O[C@H](c4ccoc4)C[C@]3(C)[C@H]2C1=O, the Ratio Ki [1] is reported as 2730 and the Ratio Ki [3] is reported as > 560.
In the case of COC(=O)[C@@H]1C[C@H](OS(=O)(=O)c2ccc(C)cc2)C(=O)[C@H]2[C@@]1(C)CCC1C(=O)O[C@H](c3ccoc3)C[C@@]12C (single isomer, unassigned), the Ratio Ki [1] is reported as 74, the Ki [2] is reported as 50 nM and the Ki (Mu-type opioid receptor) is reported as 220 nM. It also gave a Ratio Ki [3] of 4 and a Ki [4] of 3720 nM.
With CCCCCC(=O)O[C@H]1C[C@@H](C(=O)OC)[C@]2(C)CCC3C(=O)O[C@H](c4ccoc4)C[C@]3(C)[C@H]2C1=O (single isomer, unassigned) the Ratio Ki [1] was 61, the Ki [2] was 70 nM and the Ki (Mu-type opioid receptor) was 520 nM. The Ratio Ki [3] was 7 and the Ki [4] was 4240 nM.
In the case of COC(=O)[C@@H]1C[C@H](OC(=O)c2cccs2)C(=O)[C@H]2[C@@]1(C)CC[C@H]1C(=O)O[C@H](c3ccoc3)C[C@]21C, the Ratio Ki [1] is reported as 5, the Ki [2] is reported as 260 nM and the Ki (Mu-type opioid receptor) is reported as 10 nM. For the same molecule, the Ratio Ki [3] was 0.04 and the Ki [4] was 1380 nM.
In the case of CCCCC(=O)O[C@H]1C[C@@H](C(=O)OC)[C@]2(C)CCC3C(=O)O[C@H](c4ccoc4)C[C@]3(C)[C@H]2C1=O (single isomer, unassigned), the Ratio Ki [1] is reported as 265, the Ki [2] is reported as 15 nM and the Ki (Mu-type opioid receptor) is reported as 310 nM. The Ratio Ki [3] was 21 and the Ki [4] was 3970 nM.
In the case of COC(=O)[C@@H]1C[C@H](OC(=O)c2cccc(Br)c2)C(=O)[C@H]2[C@@]1(C)CCC1C(=O)O[C@H](c3ccoc3)C[C@@]12C (single isomer, unassigned), the Ratio Ki [1] is reported as > 100, the Ki [2] is reported as 70 nM and the Ki (Mu-type opioid receptor) is reported as 110 nM. For the same molecule, the Ratio Ki [3] was 1.6 and the Ki [4] was > 10000 nM.
With COC(=O)[C@@H]1C[C@H](OC(=O)CNC(=O)OC(C)(C)C)C(=O)[C@H]2[C@@]1(C)CCC1C(=O)O[C@H](c3ccoc3)C[C@@]12C (single isomer, unassigned) the Ratio Ki [1] was > 100, the Ki [2] was 90 nM and the Ki (Mu-type opioid receptor) was 5660 nM. The Ratio Ki [3] was 63 and the Ki [4] was > 10000 nM.
CCCC(=O)O[C@H]1C[C@@H](C(=O)OC)[C@]2(C)CCC3C(=O)O[C@H](c4ccoc4)C[C@]3(C)[C@H]2C1=O (single isomer, unassigned) gave a Ratio Ki [1] of 1010, a Ki [2] of 4 nM and a Ki (Mu-type opioid receptor) of 520 nM. It also gave a Ratio Ki [3] of 130 and a Ki [4] of 4030 nM.
With COC(=O)[C@@H]1C[C@H](OS(=O)(=O)c2ccccc2)C(=O)[C@H]2[C@@]1(C)CCC1C(=O)O[C@H](c3ccoc3)C[C@@]12C (single isomer, unassigned) the Ratio Ki [1] was > 150, the Ki [2] was 60 nM and the Ki (Mu-type opioid receptor) was > 10000 nM. For the same molecule, the Ratio Ki [3] was > 150 and the Ki [4] was > 10000 nM.
With COC(=O)[C@@H]1C[C@H](OC(=O)CCc2ccccc2)C(=O)[C@H]2[C@@]1(C)CC[C@H]1C(=O)O[C@H](c3ccoc3)C[C@]21C the Ratio Ki [1] was 52, the Ki [2] was 180 nM and the Ki (Mu-type opioid receptor) was 280 nM. It also gave a Ratio Ki [3] of 2 and a Ki [4] of 9330 nM.
In the case of COC(=O)[C@@H]1C[C@H](OC(=O)Cc2ccccc2)C(=O)[C@H]2[C@@]1(C)CCC1C(=O)O[C@H](c3ccoc3)C[C@@]12C (single isomer, unassigned), the Ratio Ki [1] is reported as > 30, the Ki [2] is reported as 290 nM and the Ki (Mu-type opioid receptor) is reported as 1090 nM. The Ratio Ki [3] was 4 and the Ki [4] was > 10000 nM.
Work on COC(=O)[C@@H]1C[C@H](OC(=O)c2ccc(Br)cc2)C(=O)[C@H]2[C@@]1(C)CCC1C(=O)O[C@H](c3ccoc3)C[C@@]12C (single isomer, unassigned) yielded a Ratio Ki [1] of 2, a Ki [2] of 740 nM and a Ki (Mu-type opioid receptor) of 10 nM. For the same molecule, the Ratio Ki [3] was 0.01 and the Ki [4] was 1410 nM.
For COC(=O)[C@@H]1C[C@H](OC(=O)c2ccccc2)C(=O)[C@H]2[C@@]1(C)CC[C@H]1C(=O)O[C@H](c3ccoc3)C[C@]21C, the Ratio Ki [1] was 12 and the Ratio Ki [3] was 0.13.

Reference: ChEMBL document CHEMBL1157966, “Synthesis of salvinorin A analogues as opioid receptor probes” (J Nat Prod, 2006)
